Source: ChEMBL document CHEMBL5325413, “Optimization of BAX trigger site activator BTSA1 with improved antitumor potency and in vitro ADMET properties” (Eur J Med Chem, 2023)
The source made the active and inactive calls. The rule behind the calls is not given here.

What was measured:
HCT-116 = test: Antiproliferative activity against human HCT-116 cells assessed as cell growth inhibition incubated for 72 hrs by MTT assay; format: functional
A549 [1] = test: Induction of apoptosis in human A549 cells assessed as total apoptotic cells at 10 uM incubated for 48 hrs by Annexin V-FITC/PI staining based flow cytometry analysis (reference value: 2.86%); format: functional
A549 [2] = test: Induction of apoptosis in human A549 cells assessed as live cells at 10 uM incubated for 48 hrs by Annexin V-FITC/PI staining based flow cytometry analysis (reference value: 96.4%); format: functional
A549 [3] = test: Induction of apoptosis in human A549 cells assessed as early apoptotic cells at 10 uM incubated for 48 hrs by Annexin V-FITC/PI staining based flow cytometry analysis (reference value: 0.708%); format: functional
PC-3 = test: Antiproliferative activity against human PC-3 cells assessed as cell growth inhibition incubated for 72 hrs by MTT assay; format: functional
A549 [4] = test: Induction of apoptosis in human A549 cells assessed as late apoptotic cells at 10 uM incubated for 48 hrs by Annexin V-FITC/PI staining based flow cytometry analysis (reference value: 2.15%); format: functional
A549 [5] = test: Induction of apoptosis in human A549 cells assessed as dead cells at 10 uM incubated for 48 hrs by Annexin V-FITC/PI staining based flow cytometry analysis (reference value: 0.739%); format: functional
A549 [6] = test: Antiproliferative activity against human A549 cells assessed as cell growth inhibition incubated for 72 hrs by MTT assay; format: functional
[7] = mouse, microsomes, 1 h, 100 µM
in vitro [8] = conditions: human, microsomes
[9] = mouse, 1 h, 100 µM
[10] = human, microsomes, 1 h, 100 µM
[11] = human, 1 h, 100 µM
in vitro [12] = conditions: mouse, microsomes
A549 [13] = test: Induction of apoptosis in human A549 cells assessed as upregulation of BAX translocation at 20 uM incubated for 24 hrs by Western blot analysis; format: functional, cell-based
[14] = Stability in rat plasma assessed as compound remaining measured immediately; format: ADME, cell-free; conditions: read-out: Stability
[15] = Stability in rat plasma assessed as compound remaining measured after 120 mins; format: ADME, cell-free; conditions: read-out: Stability
[16] = Stability in rat plasma assessed as compound remaining measured after 60 mins; format: ADME, cell-free; conditions: read-out: Stability
[17] = Stability in rat plasma assessed as compound remaining measured after 30 mins; format: ADME, cell-free; conditions: read-out: Stability
[18] = Stability in rat plasma assessed as compound remaining measured after 10 mins; format: ADME, cell-free; conditions: read-out: Stability
[19] = Stability in rat plasma assessed as half life; format: ADME, cell-free

Row | SMILES | GI50 (HCT-116) [µM] | Activity (A549 [1]) [%] | Activity (A549 [2]) [%] | Activity (A549 [3]) [%] | GI50 (PC-3) [µM] | Activity (A549 [4]) [%] | Activity (A549 [5]) [%] | GI50 (A549 [6]) [µM] | other results
1 | N[C@@H]1CCCN(C(=O)c2ccc(N3N=C(c4ccccc4)/C(=N/Nc4ccccc4)C3=O)cc2)C1 | 2.96 | 11.8 | 6.22 | 8.59 | 5.39 | 3.21 | 0.814 | 8.38 | –
2 | O=C(O)Cc1ccccc1Nc1c(Cl)cccc1Cl [DICLOFENAC] | – | – | – | – | – | – | – | – | CLint [7]: 29.7 µL/min/mg; half-life at 1 h, 100 µM (in vitro [8]): 6.8 min; CLH ([9]; Liver): 0.1176 mL/min/kg; CLint [10]: 203 µL/min/mg; CLH ([11]; Liver): 183 mL/min/kg; half-life at 1 h, 100 µM (in vitro [12]): 46.7 min
3 | C[C@]12CC[C@H]3[C@@H](CCC4=CC(=O)CC[C@@]43C)[C@@H]1CC[C@@H]2O [TESTOSTERONE] | – | – | – | – | – | – | – | – | CLH [9]: 1.4374 mL/min/kg; CLint [10]: 106 µL/min/mg; CLH [11]: 95.5 mL/min/kg
4 | COc1cc(N/N=C2\C(=O)N(c3ccc(C(=O)N4CCC(N(C)C)CC4)cc3)N=C2c2ccccc2)ccc1F | 3.37 | 61.8 | 35.4 | 39.6 | 3.94 | 22.2 | 2.85 | 2.79 | Activity (A549 [13]): Active
5 | CN(C)C1CCN(C(=O)c2ccc(N3N=C(c4ccccc4)/C(=N/Nc4cc(C(F)(F)F)cc(C(F)(F)F)c4)C3=O)cc2)CC1 | 1.76 | 44.8 | 54.3 | 34.7 | 1.15 | 10.1 | 0.996 | 4.54 | –
6 | CN(C)C1CCN(C(=O)c2cccc(N3N=C(c4ccccc4)/C(=N/Nc4ccccc4)C3=O)c2)CC1 | 5.23 | – | – | – | 10.7 | – | – | 2.68 | –
7 | CC(C)Oc1cc(F)ccc1N/N=C1\C(=O)N(c2ccc(C(=O)N3CCC(N(C)C)CC3)cc2)N=C1c1ccccc1 | 2.2 | – | – | – | 2.42 | – | – | 6.13 | –
8 | O=C(c1ccccc1)N1CCC(C2=NN(c3nc(-c4ccccc4)cs3)C(=O)/C2=N\Nc2nccs2)CC1 | > 50 | – | – | – | > 50 | – | – | 28.7 | –
9 | CN(C)C1CCN(C(=O)c2ccc(N3N=C(c4ccccc4)/C(=N/Nc4ccc5ccccc5c4)C3=O)cc2)CC1 | 2.18 | – | – | – | 4.78 | – | – | 4.52 | –
10 | CN(C)C1CCN(C(=O)c2ccc(N3N=C(c4ccccc4)C(=C4CCN(C(=O)c5ccc(O)cc5)CC4)C3=O)cc2)CC1 | 34.7 | – | – | – | > 50 | – | – | 33.6 | –
11 | CC1=NN(c2ccc(C(=O)N3CCC(N(C)C)CC3)cc2)C(=O)/C1=N\Nc1ccccc1 | 3.42 | 13.3 | 82.4 | 11.7 | 4.94 | 1.57 | 4.37 | 8.99 | –
12 | CCOC(=O)[C@H](CCc1ccccc1)N[C@@H](C)C(=O)N1CCC[C@H]1C(=O)O.O=C(O)/C=C\C(=O)O [ENALAPRIL MALEATE] | – | – | – | – | – | – | – | – | remaining at 0 min [14]: 100%; remaining at 2 h [15]: 0%; remaining at 1 h [16]: 2.7%; remaining at 0.5 h [17]: 19.2%; remaining at 10 min [18]: 58.9%; half-life [19]: 10 min
13 | CN(C)C(=O)c1ccc(N2N=C(c3ccccc3)/C(=N/Nc3ccccc3)C2=O)cc1 | > 50 | – | – | – | > 50 | – | – | > 50 | –
14 | CN(C)C1CCN(C(=O)c2ccc(N3N=C(c4ccccc4)C(=C4CCN(C(=O)c5cscn5)CC4)C3=O)cc2)CC1 | 11.7 | – | – | – | 16.8 | – | – | 16.6 | –
15 | CN(C)C1CCN(C(=O)c2ccc(N3N=C(c4ccccc4)/C(=N/Nc4ccc(O)cc4)C3=O)cc2)CC1 | 2.67 | 76.2 | 21.5 | 60 | 3.04 | 16.2 | 2.33 | 2.19 | Activity (A549 [13]): Active
16 | O=C1/C(=N\Nc2ccccc2)C(c2ccccc2)=NN1c1ccccc1 | > 50 | – | – | – | > 50 | – | – | > 50 | –
